# Source: paper PMC5071672 (2016)
# Key:
# [1] = system: duplex-[(dAdT)12·(dAdT)12] (DNA, duplex) ATATATATATATATATATATATAT; assay: ITC; conditions: 100 mM KCl; 25 mM MOPS, 1 mM EDTA, pH 7.1, 25 °C; too weak to be analysed
# [2] = system: duplex-[(dGdC)12·(dGdC)12] (DNA, duplex) GCGCGCGCGCGCGCGCGCGCGCGC; assay: ITC; conditions: 100 mM KCl; 25 mM MOPS, 1 mM EDTA, pH 7.1, 25 °C; site 1 of 2; ill-defined, SI favours higher value
# [3] = system: 22AG (DNA, G4) AGGGTTAGGGTTAGGGTTAGGG; assay: ITC; conditions: 100 mM KCl; 25 mM MOPS, 1 mM EDTA, pH 7.1, 25 °C; site 1 of 2
# [4] = system: c-myc (DNA, G4) TGAGGGTGGGTAGGGTGGGTAA; assay: ITC; conditions: 100 mM KCl; 25 mM MOPS, 1 mM EDTA, pH 7.1, 25 °C; site 1 of 2; nB restricted to 2
# [5] = system: duplex-[(dAdT)12·(dAdT)12] (DNA, duplex) ATATATATATATATATATATATAT; assay: UV/visible titration; conditions: 100 mM KCl; 25 mM MOPS, 1 mM EDTA, pH 7.1, 20 °C (text: 25 °C); 2 µM ligand; affinity printed as negligible
# [6] = system: duplex-[(dGdC)12·(dGdC)12] (DNA, duplex) GCGCGCGCGCGCGCGCGCGCGCGC; assay: UV/visible titration; conditions: 100 mM KCl, 25 mM MOPS, 1 mM EDTA, pH 7.1, 20 °C (text: 25 °C), apparent, per site, MIS model
# [7] = system: 22AG (DNA, G4) AGGGTTAGGGTTAGGGTTAGGG; assay: UV/visible titration; conditions: 100 mM KCl, 25 mM MOPS, 1 mM EDTA, pH 7.1, 20 °C (text: 25 °C), apparent, per site, MIS model
# [8] = system: c-myc (DNA, G4) TGAGGGTGGGTAGGGTGGGTAA; assay: UV/visible titration; conditions: 100 mM KCl, 25 mM MOPS, 1 mM EDTA, pH 7.1, 20 °C (text: 25 °C), apparent, per site, MIS model
# [9] = system: duplex-[(dAdT)12·(dAdT)12] (DNA, duplex) ATATATATATATATATATATATAT; assay: fluorescence titration; conditions: 100 mM KCl; 25 mM MOPS, 1 mM EDTA, pH 7.1, 20 °C (text: 25 °C); 2 µM ligand; affinity printed as negligible
# [10] = system: duplex-[(dGdC)12·(dGdC)12] (DNA, duplex) GCGCGCGCGCGCGCGCGCGCGCGC; assay: fluorescence titration; conditions: 100 mM KCl, 25 mM MOPS, 1 mM EDTA, pH 7.1, 20 °C (text: 25 °C), apparent, per site, MIS model
# [11] = system: 22AG (DNA, G4) AGGGTTAGGGTTAGGGTTAGGG; assay: fluorescence titration; conditions: 100 mM KCl, 25 mM MOPS, 1 mM EDTA, pH 7.1, 20 °C (text: 25 °C), apparent, per site, MIS model
# [12] = system: c-myc (DNA, G4) TGAGGGTGGGTAGGGTGGGTAA; assay: fluorescence titration; conditions: 100 mM KCl, 25 mM MOPS, 1 mM EDTA, pH 7.1, 20 °C (text: 25 °C), apparent, per site, MIS model
structure (smiles),measurement,setting,value
C[n+]1cccc(-c2cc3c4cc(-c5ccc[n+](C)c5)c5nc(C(F)(F)C(F)(F)C(F)(F)F)nc6c(-c7ccc[n+](C)c7)cc(c7cc(-c8ccc[n+](C)c8)c8nc(C(F)(F)C(F)(F)C(F)(F)F)nc2c8c37)c4c56)c1,binding,[1],weak
same,K A,[2],1.2×10^5 (<8×10^6) M^-1
same,K A,[3],3.8×10^6 (<36×10^6) M^-1
same,K A,[4],1.3×10^7 (>0.4×10^7) M^-1
same,binding,[5],weak
same,K b,[6],(2.6±0.9) × 10^6 M^-1
same,K b,[7],(8.4±2.2) × 10^6 M^-1
same,K b,[8],(23.8±7.3) × 10^6 M^-1
same,binding,[9],weak
same,K b,[10],(2.6±0.7) × 10^6 M^-1
same,K b,[11],(1.2±0.2) × 10^6 M^-1
same,K b,[12],(23.1±5.9) × 10^6 M^-1
